The values below come from patent US6441023B1 (American Home Products Corporation, priority 1997, dated 2002).

Data set [1] deals with T1, MMP 13 (Homo sapiens, UniProt P45452). As to the kind of experiment: MMP 13 inhibition (HTS). It counts as biochemical.
A further data set has as its target T2, TACE (Homo sapiens, UniProt P78536).
T2 construct: purchased Immunex
As to the kind of experiment: Procedure for measuring TACE inhibition. It counts as biochemical. To be noted: for IC50: read-out: TACE IC 50.

Another data set addresses T3, MMP 1 (Homo sapiens, UniProt P03956).
T3 construct: human recombinant fibroblast collagenase (truncated, mw=18,828, WAR, Radnor)
T3 sequence (P03956 100-269 limits assumed): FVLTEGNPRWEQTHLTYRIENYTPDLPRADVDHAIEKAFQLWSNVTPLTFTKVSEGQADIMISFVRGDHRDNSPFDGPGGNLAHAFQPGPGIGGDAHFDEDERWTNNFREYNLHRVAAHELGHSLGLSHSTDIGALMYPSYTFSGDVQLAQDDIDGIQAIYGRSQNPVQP
As to the kind of experiment: In vitro collagenase assay (human recombinant fibroblast collagenase). It counts as biochemical. The settings on record: for IC50: read-out: MMP 1 IC 50; for inhibition at 10 µM: read-out: MMP 1 % inhibition at 10 micromolar (*). As to the method: The assay is based on the cleavage of a peptide substrate ((Dnp-Pro-Cha-Gly-Cys(iNe)-His-Ala-Lys(NMa)-NH2), Peptide International, Inc.) by collag,enase releasing the fluorescent NMa group which is quantitated on the fluorometer. Dnp quenches the NiIa fluorescence in the intact substrate. […] Substrate is dissolved in methanol and stored frozen in 1 mM aliquots. Collagenase is stored frozen in buffer in 25 µM aliquots. For the assay, substrate is dissolved in HCBC buffer to a final concentration of 10 μM and collagenase to a final concentration of 5 nM. Compounds are dissolved in methanol, DMSO, or HCBC. The methanol and DMSO are diluted in HCBC to <1.0%. Compounds are added to the 96 well plate containing enzyme and the reaction is started by the addition of substrate.
The slope of the line is calculated and represents the reaction rate.
The mean (x±sem) of the control rate is calculated and compared for statistical significance (p<0.05) with drug-treated rates using Dunnett's multiple comparison test.

Data set [2] concerns the target T1, MMP 13. Put plainly: MMP 13 inhibition (manual). It counts as biochemical. To be noted: read-out: MMP 13 IC 50.
For another data set, the target named is T4, MMP 9 (Homo sapiens, UniProt P14780).
T4 construct: from tissue; host or cells: human neutrophils
T4 sequence (P14780 94-707): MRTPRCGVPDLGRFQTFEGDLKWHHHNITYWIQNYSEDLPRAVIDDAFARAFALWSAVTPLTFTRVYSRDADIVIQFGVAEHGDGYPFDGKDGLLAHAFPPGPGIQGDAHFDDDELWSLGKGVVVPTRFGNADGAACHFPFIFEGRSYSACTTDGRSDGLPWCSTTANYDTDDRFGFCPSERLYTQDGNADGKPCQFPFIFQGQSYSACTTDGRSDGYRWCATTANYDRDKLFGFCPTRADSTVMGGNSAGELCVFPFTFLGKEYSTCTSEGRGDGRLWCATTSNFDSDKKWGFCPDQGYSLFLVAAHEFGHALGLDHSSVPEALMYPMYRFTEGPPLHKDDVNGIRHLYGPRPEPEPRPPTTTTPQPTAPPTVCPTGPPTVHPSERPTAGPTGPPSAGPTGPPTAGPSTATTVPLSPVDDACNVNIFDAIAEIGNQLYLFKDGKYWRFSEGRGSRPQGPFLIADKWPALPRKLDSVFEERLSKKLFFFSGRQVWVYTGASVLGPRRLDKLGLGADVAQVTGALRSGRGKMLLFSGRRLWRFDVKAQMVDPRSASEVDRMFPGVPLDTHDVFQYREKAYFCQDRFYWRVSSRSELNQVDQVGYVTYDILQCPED
As to the kind of experiment: In vitro gelatinase assay (human neutrophil gelatinase B). It counts as biochemical. To be noted: read-out: MMP 9 IC 50. As to the method: The assay is based on the cleavage of the thiopeptide substrate ((Ac-Pro-Leu-Gly(2 mercapto-4 methyl-pentanoyl)-Leu-Gly-OEt), Bachem Bioscience) by the enzyme, gelatinase, releasing the substrate product which reacts calorimetrically with DTNB ((5,5′-dithio-bis(2-nitro-benzoic acid)). The enzyme activity is measured by the rate of the color increase.
The thiopeptide substrate is made up fresh as a 20 mM stock in 100% DMSO and the DTNB is dissolved in 100% DMSO as a 100 mM stock and stored in dark at room temperature. Both the substrate and DTNB are diluted together to 1 mM with substrate buffer (50 mM HEPES pH 7.5, 5 mM CaCl2) before use. The stock of human neutrophil gelatinase B is diluted with assay buffer (50 mnM HEPES pH 7.5, 5 mM CaCl2, 0.02% Brij) to a final concentration of 0.15 mnM.
The increase in OD405 is plotted and the slope of the line is calculated which represents the reaction rate.

T2 sequence (P78536 215-824): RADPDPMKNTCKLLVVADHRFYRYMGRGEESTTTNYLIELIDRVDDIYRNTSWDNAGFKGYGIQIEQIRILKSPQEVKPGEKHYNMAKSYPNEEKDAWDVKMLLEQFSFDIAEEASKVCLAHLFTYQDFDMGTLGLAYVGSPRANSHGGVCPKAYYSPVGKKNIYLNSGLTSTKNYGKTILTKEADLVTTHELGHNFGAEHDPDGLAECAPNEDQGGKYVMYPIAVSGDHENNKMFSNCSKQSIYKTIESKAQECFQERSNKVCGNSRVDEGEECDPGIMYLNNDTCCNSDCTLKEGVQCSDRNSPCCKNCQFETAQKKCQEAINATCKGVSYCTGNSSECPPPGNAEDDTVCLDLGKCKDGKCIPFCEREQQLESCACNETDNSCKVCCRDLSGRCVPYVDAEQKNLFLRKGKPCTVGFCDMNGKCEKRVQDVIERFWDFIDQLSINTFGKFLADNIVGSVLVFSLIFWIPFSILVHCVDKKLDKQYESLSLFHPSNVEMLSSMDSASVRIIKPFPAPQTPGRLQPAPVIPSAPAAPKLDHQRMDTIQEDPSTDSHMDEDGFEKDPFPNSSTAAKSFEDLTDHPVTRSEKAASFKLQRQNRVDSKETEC

With `O=C(CCC(C(=O)NO)S(=O)(=O)c1ccccc1C(F)(F)F)NO` (centres unmarked) [Example 139, 4-Hydroxycarbamoyl-4-(2-trifiuoromethyl-benzenesulfonyl)-butyric acid hydroxyamide], the “MMP 13 % inhibition at 0.2 μM (HTS)” value at MMP 13 [1] amounted to 8%.

As to `CCCCCCC(C(=O)NO)S(=O)(=O)c1ccc(OS(=O)(=O)c2ccccc2[N+](=O)[O-])cc1` (centres unmarked) [Example 238, 2-Nitro-benzenesulfonic acid 4-(1-hydroxycarbamoyl-heptylsulfonyl)-hydroxyamide], the “MMP 13 % inhibition at 36 nM (HTS)” value on MMP 13 [1] was 22%. `CCCCOc1ccc(S(=O)(=O)C2(C(=O)NO)CCN(CC)CC2)cc1` [Example 245, 1-Ethyl-4-(4-butoxy-benzenesulfonyl)-piperidine-4-carboxylic acid hydroxyamide] yielded a melting point of 98 °C. For the same compound, at TACE (read-out: TACE % inhibition at 10 micromolar (*)), the inhibition at 10 µM is 52%. Also, the IC50 at MMP 1 was determined as 7060 nM. Also, on MMP 13 [2], the IC50 was 2.2 nM. The IC50 at MMP 9 stood at 43.4 nM. For `CCCCCCC(C(=O)NO)S(=O)(=O)c1nccs1` (centres unmarked) [Example 195, 2-(Thiazol-2-ylsulfonyl)-octanoic acid hydroxyamde], the “MMP 13 % inhibition at 36 nM (HTS)” value at MMP 13 [1] is given as −9%.

In the case of `CCCCCCC(SCCc1ccccn1)C(=O)NO` (centres unmarked) [Example 173, 2-(2-Pyridin-2-yl-ethylsulfanyl)-octanoic acid hydroxyaride], on MMP 13 [1], the “MMP 13 % inhibition at 36 nM (HTS)” value worked out at 18%. `O=C(CCC(C(=O)NO)[S+]([O-])c1ccccc1C(F)(F)F)NO` (centres unmarked) [Example 138, 4-Hydroxycarbamoyl-4-(2-triuoromethyl-benzenesulfmyl)-butyric acid hydroxyamide]: on MMP 13 [1], the “MMP 13 % inhibition at 0.2 μM (HTS)” value is on record as 20%. Take `CCCCCCC(C(=O)NO)S(=O)(=O)c1cccc(OC)c1` (centres unmarked) [Example 164, 2-(3-Methoxybenzenesulfonyl)tanoic acid hydroxyamide]: the “MMP 13 % inhibition at 0.2 μM (HTS)” value on MMP 13 [1] was determined as 74%.

Consider `CCCCCCC(C(=O)NO)S(=O)(=O)c1cccc2cccnc12` (centres unmarked) [Example 196, 2-(Quinoline-8-sulfonyl)-octanoic acid hydroxyamde], for which, at MMP 13 [1], the “MMP 13 % inhibition at 36 nM (HTS)” value is −18%.

Take `C[S+]([O-])c1ccc([S+]([O-])C(COCc2ccccc2)C(=O)NO)cc1` (centres unmarked) [Example 147, 3-Benzyloxy-N-hydroxy-2-(4-methanesulfinyl-benzenesulfmyl)-propionamide]: on MMP 13 [1], the “MMP 13 % inhibition at 0.2 μM (HTS)” value amounted to 73%. For the compound `O=C(NO)C1(S(=O)(=O)c2ccc(OCc3ccccc3)cc2)CCN(Cc2ccccc2)CC1` [Example 241, 1-Benzyl-4-(4-benzyloxy-benzenesulfonyl)-piperidinefcarboxylic acid hydroxyamide], the melting point stood at 89 °C. The IC50 on TACE stood at 277 nM. For the same compound, on MMP 1, the inhibition at 10 µM is 48.2%. The IC50 at MMP 9 was determined as 2.7 nM. For “2-(4-Acetylamino-benzenesufanyl)-N-hydroxy-3-phenyl-propionarnide [Example 129]”, the “MMP 13 % inhibition at 0.2 μM (HTS)” value on MMP 13 [1] is given as 90%. As for `CCCCCCC(C(=O)NO)S(=O)(=O)CC1NC(=O)NC1=O` (centres unmarked) [Example 198, 2-(2,5-Dioxo-inidazolidinylmethylsulfonyl)-octanoic acid hydroxyamide], the “MMP 13 % inhibition at 36 nM (HTS)” value at MMP 13 [1] is −39%. With `CCCCCCC(C(=O)NO)[S+]([O-])CC(=O)Nc1ccc2ccccc2c1` (centres unmarked) [Example 191, 2-(Naphthalen-2-ylcarbamoylmethanesulfimyl)-cmtanoic acid hydroxyamide], the “MMP 13 % inhibition at 36 nM (HTS)” value on MMP 13 [1] was −45%.

In the case of `CCCCOc1ccc(S(=O)(=O)C2(C(=O)NO)CCN(C)CC2)cc1` [Example 244, 1-Methyl-4-(4-butoxy-benzenesulfonyl)-piperidine-4-carboxylic acid hydroxyamide], the melting point turned out to be 118 °C. For the same compound, the IC50 at TACE turned out to be 594 nM. The IC50 on MMP 1 is 3420 nM. The IC50 at MMP 13 [2] amounted to 1.5 nM. The IC50 at MMP 9 is 9.8 nM.

In the case of `CCCCCCC(SC1N=NN(c2ccccc2)N1)C(=O)NO` (centres unmarked) [Example 174, 2-(2-Phenyl-5H-tetrazol-5-ylsulfanyl)-octanoic acid hydroxyanide], at TACE (1 µM), the “TACE % inhibition at 1 µM” value is 27.7%. The “MMP 13 % inhibition at 36 nM (HTS)” value on MMP 13 [1] is recorded as 10%. As to `O=C(CCC(C(=O)NO)[S+]([O-])c1ccc(Br)cc1)NO` (centres unmarked) [Example 135, 4-Hydroxycarbamoyl-4-(4-bromo-benzenesulfinyl)-butyric acid hydfoxyamide], the “MMP 13 % inhibition at 0.2 μM (HTS)” value at MMP 13 [1] is 79%. In the case of `CC(C)C(SCCc1ccccc1)C(=O)NO` (centres unmarked) [Example 117, N-Hydroxy-3-methyl-2-phenethylsulfanyl-butyramide], the inhibition at 1 µM on TACE (read-out: TACE % inhibition at 1 µM) came out at 8.1%. Further, the inhibition at 0.2 µM on MMP 13 [1] (read-out: MMP 13 % inhibition at 0.2 μM (HTS), 0.2 μM) was determined as 7%.

Compound `CCCCOc1ccc(S(=O)(=O)C2(C(=O)NO)CCN(CCCC)CC2)cc1` [Example 246, 1-n-Butyl-4-(4-butoxy-benzenesulfonyl)-piperidine-4-carboxylic acid hydroxyamide] returned a melting point of 121 °C. Besides, at TACE, the IC50 stood at 880 nM. For the same compound, the inhibition at 10 µM on MMP 1 was found to be 50.3%. The IC50 at MMP 13 [2] is 2.4 nM. In addition, the IC50 at MMP 9 amounted to 28.3 nM.
